Assay: Metabolic stability in human liver microsomes
Type: in vitro ADME
Conditions: for difference in half-life and intrinsic clearance compared with the corresponding non-deuterated methylone hydrochloride: human liver microsomes; for CLint (μL/min/mg protein): human liver microsomes 0.5 mg/mL, 1 μM compound, NADPH, 0-45 min
Description: Pooled liver microsomes are purchased from a reputable commercial supplier. Microsomes are stored at […] prior to use. Microsomes (final protein concentration 0.5 mg/mL), 0.1 M phosphate buffer pH 7.4 and test compound (final substrate concentration 1 μM; final DMSO concentration 0.25%) are preincubated at 37° C. prior to the addition of NADPH (final concentration 1 mM) to initiate the reaction. A minus cofactor control incubation is included for each compound tested where 0.1 M phosphate buffer pH 7.4 is added instead of NADPH (minus NADPH). Two control compounds are included with each species. All incubations are performed singularly for each test compound. Each compound is incubated for 0, 5, 15, 30 and 45 min. The control (minus NADPH) is incubated for 45 min only. The reactions are stopped by transferring incubate into acetonitrile at the appropriate time points, in a 1:3 ratio. The termination plates are centrifuged at 3,000 rpm for 20 min at 4° C. to precipitate the protein.
From a plot of ln peak area ratio (compound peak area/internal standard peak area) against time, the gradient of the line is determined. Subsequently, half-life and intrinsic clearance are calculated using the equations below: Elimination rate constant (k)=(−gradient) Half-life (t½)(min)=0.693/k Intrinsic clearance (CLint)(μL/min/mg protein)=V×0.693/t½ where V=Incubation volume (μL)/Microsomal protein (mg)
Relevant control compounds were assessed, ensuring intrinsic clearance values fall within the specified limits (if available).

Row | SMILES | difference in half-life and intrinsic clearance compared with the corresponding non-deuterated methylone hydrochloride | CLint (μL/min/mg protein)
1 | Cl.[2H]C([2H])([2H])NC(C)C(=O)c1ccc2c(c1)OC([2H])([2H])O2 (racemic) [(rac)-Methylone-d5 hydrochloride, 1-(benzo[d][1,3]dioxol-5-yl-2,2-d2)-2-((methyl-d3)amino)propan-1-one HCl] | most significant difference in half-life and intrinsic clearance | 
2 | Cl.[2H]C1([2H])Oc2ccc(C(=O)[C@@H](C)NC)cc2O1 [(R)-Methylone-d2 hydrochloride, (R)-1-(benzo[d][1,3]dioxol-5-yl-2,2-d2)-2-((methyl)amino)propan-1-one HCl] | differences in half-life and intrinsic clearance | 
3 | Cl.[2H]C([2H])([2H])N[C@H](C)C(=O)c1ccc2c(c1)OCO2 [(R)-Methylone-d3 hydrochloride, (R)-1-(benzo[d][1,3]dioxol-5-yl)-2-((methyl-d3)amino)propan-1-one HCl] | differences in half-life and intrinsic clearance | 
4 | Cl.[2H]C([2H])([2H])N[C@H](C)C(=O)c1ccc2c(c1)OC([2H])([2H])O2 [(R)-Methylone-d5 hydrochloride, (R)-1-(benzo[d][1,3]dioxol-5-yl-2,2-d2)-2-((methyl-d3)amino)propan-1-one HCl] | most significant difference in half-life and intrinsic clearance | 6.27
5 | Cl.[2H]C1([2H])Oc2ccc(C(=O)[C@H](C)NC)cc2O1 [(S)-Methylone-d2 hydrochloride, (S)-1-(benzo[d][1,3]dioxol-5-yl-2,2-d2)-2-(methylamino)propan-1-one hydrochloride] | differences in half-life and intrinsic clearance | 
6 | Cl.[2H]C([2H])([2H])N[C@@H](C)C(=O)c1ccc2c(c1)OCO2 [(S)-Methylone-d3 hydrochloride, (S)-1-(benzo[d][1,3]dioxol-5-yl)-2-((methyl-d3)amino)propan-1-one HCl] | differences in half-life and intrinsic clearance | 9.60
7 | Cl.[2H]C([2H])([2H])N[C@@H](C)C(=O)c1ccc2c(c1)OC([2H])([2H])O2 [(S)-Methylone-d5 hydrochloride, (S)-1-(benzo[d][1,3]dioxol-5-yl-2,2-d2)-2-((methyl-d3)amino)propan-1-one hydrochloride] | most significant difference in half-life and intrinsic clearance | 9.07
